Reference: ChEMBL document CHEMBL1201862, “PubChem BioAssay data set” (2004)
Calls of active or inactive are those of the source.

Columns and labels:
[1] = molecular target: T1, Dual specificity protein phosphatase 3 (Homo sapiens, UniProt P51452); experiment: SAR VHR1 Fluorescent Assay for In Vitro dose response studies. [Related pubchem assays (depositor defined):AID1654, AID1661, AID1878, AID1992, AID2004, AID2070, AID2085]; assay type: functional
[2] = molecular target: T2, Tyrosine-protein phosphatase non-receptor type 22 (Homo sapiens, UniProt Q9Y2R2); experiment: SAR LYP1 Fluorescent Assay using OMFP substrate for In Vitro dose response studies - Set 3. [Related pubchem assays (depositor defined):AID1779, AID1784, AID2140, AID2686]; assay type: functional
T2 sequence (Q9Y2R2 whole entry): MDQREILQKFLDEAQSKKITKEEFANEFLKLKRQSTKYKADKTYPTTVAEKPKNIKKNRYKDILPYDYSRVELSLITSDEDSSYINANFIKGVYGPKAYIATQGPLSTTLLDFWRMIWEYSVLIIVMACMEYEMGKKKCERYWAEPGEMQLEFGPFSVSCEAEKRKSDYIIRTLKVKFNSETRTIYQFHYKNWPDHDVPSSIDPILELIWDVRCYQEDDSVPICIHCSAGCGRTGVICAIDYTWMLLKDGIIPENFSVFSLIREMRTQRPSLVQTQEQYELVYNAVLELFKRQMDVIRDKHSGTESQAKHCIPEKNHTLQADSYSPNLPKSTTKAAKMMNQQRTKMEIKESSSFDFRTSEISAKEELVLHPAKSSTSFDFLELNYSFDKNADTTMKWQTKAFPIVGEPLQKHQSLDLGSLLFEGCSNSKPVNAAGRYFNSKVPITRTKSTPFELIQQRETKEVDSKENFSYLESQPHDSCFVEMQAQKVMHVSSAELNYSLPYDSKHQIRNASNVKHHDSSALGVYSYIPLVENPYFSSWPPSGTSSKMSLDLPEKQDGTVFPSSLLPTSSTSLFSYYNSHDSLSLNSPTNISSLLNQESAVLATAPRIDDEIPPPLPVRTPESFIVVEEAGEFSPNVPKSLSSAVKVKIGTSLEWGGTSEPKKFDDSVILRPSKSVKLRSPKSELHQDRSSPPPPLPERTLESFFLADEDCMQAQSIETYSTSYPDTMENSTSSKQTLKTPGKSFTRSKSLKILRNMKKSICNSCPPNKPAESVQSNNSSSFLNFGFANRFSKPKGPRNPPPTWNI

[3] = molecular target: T1, Dual specificity protein phosphatase 3; experiment: VHR1 phosphatase inhibitors, primary screen, biochemical, absorbance, uHTS (AID 1654)
[4] = molecular target: T1, Dual specificity protein phosphatase 3; experiment: VHR1 phosphatase inhibitors, biochemical (AID 1878)
[5] = molecular target: T1, Dual specificity protein phosphatase 3; experiment: SAR VHR1 absorbance Assay for In Vitro dose response studies. [Related pubchem assays (depositor defined):AID1654, AID1661, AID1878, AID1992, AID2004]
Genome polyprotein = Genome polyprotein (dengue virus type 2, UniProt P29990); experiment: flavivirus cap methylation enzyme inhibition – biochemical, confirmation dose response, primary screen (AID 588689); assay type: functional
[6] = molecular target: T3, Dual specificity protein phosphatase 6 (Rattus norvegicus, UniProt Q64346); experiment: inhibition of rat DUSP6 enzyme activity – biochemical, in vitro, primary screen (AID 425)
T3 sequence (Q64346 whole entry): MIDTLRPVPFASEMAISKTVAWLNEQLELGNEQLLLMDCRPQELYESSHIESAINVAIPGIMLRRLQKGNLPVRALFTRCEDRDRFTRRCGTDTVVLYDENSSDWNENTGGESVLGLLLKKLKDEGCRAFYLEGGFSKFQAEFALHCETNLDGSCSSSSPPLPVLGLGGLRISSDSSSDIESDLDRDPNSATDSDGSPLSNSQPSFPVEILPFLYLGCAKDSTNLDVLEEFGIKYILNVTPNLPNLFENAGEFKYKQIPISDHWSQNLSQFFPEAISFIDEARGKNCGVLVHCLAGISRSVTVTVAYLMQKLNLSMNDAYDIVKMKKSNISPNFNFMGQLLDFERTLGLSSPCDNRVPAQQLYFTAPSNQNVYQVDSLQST

[7] = molecular target: Tyrosine-protein phosphatase non-receptor type 12 (Homo sapiens, UniProt Q05209); experiment: SAR Selectivity Analysis of small molecule inhibitors of PEST using pCAP in a fluorescence assay. [Related pubchem assays (depositor defined):AID1779, AID1784, AID2135]; assay type: functional
[8] = molecular target: T4, Tyrosine-protein phosphatase non-receptor type 7 (Homo sapiens, UniProt P35236); experiment: redox-active compounds inhibiting HePTP phosphatase – biochemical, fluorescence, mechanism study (AID 2068); assay type: functional
T4 sequence (P35236 whole entry): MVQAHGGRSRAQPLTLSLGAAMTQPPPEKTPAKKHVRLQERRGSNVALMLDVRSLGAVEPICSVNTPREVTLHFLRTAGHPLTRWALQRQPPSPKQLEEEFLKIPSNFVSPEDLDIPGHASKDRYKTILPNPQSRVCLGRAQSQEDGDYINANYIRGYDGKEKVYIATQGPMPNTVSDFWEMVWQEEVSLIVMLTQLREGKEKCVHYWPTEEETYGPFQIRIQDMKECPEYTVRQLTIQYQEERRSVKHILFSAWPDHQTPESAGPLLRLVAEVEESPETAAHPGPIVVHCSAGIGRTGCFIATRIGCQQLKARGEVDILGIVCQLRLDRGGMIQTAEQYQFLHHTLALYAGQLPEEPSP

[9] = molecular target: T5, Apoptotic protease-activating factor 1 (Homo sapiens, UniProt O14727); experiment: activation of Apaf-1 mediated apoptosis – fluorescent, uHTS hits, dose response (AID 588554); assay type: functional
T5 sequence (O14727 whole entry): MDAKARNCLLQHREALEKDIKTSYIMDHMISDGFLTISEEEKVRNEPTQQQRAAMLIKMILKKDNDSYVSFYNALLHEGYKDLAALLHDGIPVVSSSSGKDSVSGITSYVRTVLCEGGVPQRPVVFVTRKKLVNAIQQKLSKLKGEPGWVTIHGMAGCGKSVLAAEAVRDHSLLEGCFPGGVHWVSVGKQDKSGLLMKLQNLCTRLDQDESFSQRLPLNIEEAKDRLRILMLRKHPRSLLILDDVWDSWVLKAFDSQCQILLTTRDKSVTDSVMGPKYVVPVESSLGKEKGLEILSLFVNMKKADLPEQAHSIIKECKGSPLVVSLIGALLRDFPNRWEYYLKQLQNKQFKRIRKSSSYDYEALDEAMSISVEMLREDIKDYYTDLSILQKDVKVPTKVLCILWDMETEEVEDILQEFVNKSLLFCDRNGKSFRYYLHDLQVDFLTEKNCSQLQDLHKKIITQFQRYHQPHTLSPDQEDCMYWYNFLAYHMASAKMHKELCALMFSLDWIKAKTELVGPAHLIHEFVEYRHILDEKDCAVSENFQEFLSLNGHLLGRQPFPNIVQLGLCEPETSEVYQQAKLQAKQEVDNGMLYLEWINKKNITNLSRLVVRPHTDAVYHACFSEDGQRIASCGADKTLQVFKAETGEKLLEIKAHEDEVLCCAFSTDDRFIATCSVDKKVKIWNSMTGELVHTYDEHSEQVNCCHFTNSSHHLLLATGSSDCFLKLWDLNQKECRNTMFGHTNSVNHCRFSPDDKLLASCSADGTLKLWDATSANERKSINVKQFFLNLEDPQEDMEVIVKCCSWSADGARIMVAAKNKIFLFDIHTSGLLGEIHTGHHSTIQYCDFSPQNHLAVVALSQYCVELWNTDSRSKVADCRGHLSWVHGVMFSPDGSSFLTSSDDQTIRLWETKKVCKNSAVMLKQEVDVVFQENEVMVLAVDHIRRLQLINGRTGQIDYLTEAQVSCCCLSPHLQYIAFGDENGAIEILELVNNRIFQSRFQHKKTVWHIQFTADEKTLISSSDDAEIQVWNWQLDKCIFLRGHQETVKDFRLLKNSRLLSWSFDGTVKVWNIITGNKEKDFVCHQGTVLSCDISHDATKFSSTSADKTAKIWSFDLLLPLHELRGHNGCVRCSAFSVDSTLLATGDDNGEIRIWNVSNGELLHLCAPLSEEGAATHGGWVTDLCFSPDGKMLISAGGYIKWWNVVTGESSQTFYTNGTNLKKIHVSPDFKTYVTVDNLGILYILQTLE

[10] = molecular target: T2, Tyrosine-protein phosphatase non-receptor type 22; experiment: inhibition of lymphoid tyrosine phosphatase LYP – biochemical, pCAP fluorogenic substrate, fluorescence, set 3, SAR follow-up (AID 449727); assay type: functional
[11] = molecular target: T3, Dual specificity protein phosphatase 6; assay type: functional
[12] = molecular target: T6, Alkaline phosphatase, tissue-nonspecific isozyme (Homo sapiens, UniProt P05186); experiment: activation of tissue-nonspecific alkaline phosphatase – biochemical, TNAP isozyme, mouse IAP uHTS hits, selectivity assay for mouse IAP activator project, dose response (AID 488880); assay type: functional
T6 sequence (P05186 whole entry): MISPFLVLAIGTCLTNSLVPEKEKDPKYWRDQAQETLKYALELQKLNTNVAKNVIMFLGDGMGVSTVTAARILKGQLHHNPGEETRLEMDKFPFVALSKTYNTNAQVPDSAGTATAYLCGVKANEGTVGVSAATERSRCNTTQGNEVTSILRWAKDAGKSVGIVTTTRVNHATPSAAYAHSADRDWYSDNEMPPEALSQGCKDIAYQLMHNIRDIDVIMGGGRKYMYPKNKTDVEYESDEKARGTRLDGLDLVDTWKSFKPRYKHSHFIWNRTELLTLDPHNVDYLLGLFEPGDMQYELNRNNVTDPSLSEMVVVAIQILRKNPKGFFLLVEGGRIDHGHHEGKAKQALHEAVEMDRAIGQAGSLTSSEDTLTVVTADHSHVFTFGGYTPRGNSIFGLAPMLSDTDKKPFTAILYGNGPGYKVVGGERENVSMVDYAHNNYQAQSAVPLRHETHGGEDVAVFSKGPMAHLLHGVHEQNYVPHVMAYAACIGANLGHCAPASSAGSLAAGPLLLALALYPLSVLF

[13] = molecular target: Intestinal-type alkaline phosphatase (Homo sapiens, UniProt P09923); experiment: activation of human intestinal alkaline phosphatase – biochemical, dose response (AID 488873); assay type: functional
Large T antigen = Large T antigen (Simian virus 40, UniProt P03070); assay type: functional, Betapolyomavirus macacae;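 note: Confirmatory-stage PubChem screen for compounds that inhibit SV40 T antigen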
Keap1/Nrf2 = Keap1/Nrf2 (Homo sapiens, UniProt Q14145); experiment: disruptors of Keap1 binding to Nrf2 peptide – biochemical, fluorescence polarization, cherry-picked samples, dose response (AID 588683)
[14] = molecular target: Intestinal-type alkaline phosphatase (Mus musculus, UniProt P24822); experiment: mouse intestinal alkaline phosphatase activators, dose response, biochemical, luminescence, uHTS hits (AID 488783); assay type: functional
[15] = molecular target: Bifunctional protein GlmU (Mycobacterium tuberculosis, UniProt P9WMN3); experiment: Inhibitors of Mycobacterial Glucosamine-1-phosphate acetyl transferase (GlmU). Secondary screen.; design: species or system Mycobacterium tuberculosis H37Rv
Troponin, cardiac muscle = Troponin, cardiac muscle (Homo sapiens, UniProt P19429+P45379+P63316); experiment: Fluorescence-based biochemical high throughput dose response assay for activators of the calcium sensitivity of cardiac Regulated Thin Filaments (RTF). [Related pubchem assays (depositor defined):AID493008, AID493018, AID504382, AID504383]; assay type: protein-complex assay
Jurkat = experiment: blockers of NF-kB activation in T cells – Jurkat, luciferase reporter, luminescence, B- and T-cell, dose response (AID 489004); assay type: functional, cell-based; conditions: Homo sapiens;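 note: NF-kB luciferase reporter Jurkat cells stimulated with PMA plus ionomycin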
[16] = HEK-293T viability loss, compound-treated – cell-based, uHTS hits, cytotoxicity control for B/T-cell NF-kB inhibitor project, dose response (AID 489019); assay type: functional;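 note: IC50 reflects cytotoxicity as loss of cell viability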
[17] = molecular target: Cyclin-dependent kinase 5/CDK5 activator 1 (Homo sapiens, UniProt Q00535); experiment: blockade of human CDK5 activity – biochemical, cherry-picked samples, set 2, dose response (AID 504545)
[18] = molecular target: T1, Dual specificity protein phosphatase 3; experiment: SAR VHR1 Fluorescent Assay for In Vitro dose response studies Set 3. [Related pubchem assays (depositor defined):AID1654, AID1661, AID1878]; assay type: functional

## CCc1ccc(NC2=NC(=O)/C(=C/c3cc(Br)c(OCC(=O)O)c(OC)c3)S2)cc1
[1]
  IC50: 0.878 µM (active)
[2]
  IC50: 10.3 µM (active)
[3]
  IC50: 10.5 µM (active)
[4]
  IC50: 3.93 µM (active)
[5]
  IC50: 3.62 µM (active)
Genome polyprotein
  IC50: 39.5 µM (active)
[6]
  IC50: 84.5 µM (active)
[7]
  IC50: 2.78 µM (active)
[8]
  IC50: 0.28 µM (active)
[9]
  EC50: 15.8 µM (active)
[10]
  IC50: 6.74 µM (active)
[11]
  IC50: 44.9 µM (active)

## Cc1ccc(/C=C2/SC(=O)NC2=S)o1
[12]
  EC50: 45.5 µM (active)
[13]
  EC50: 41.4 µM (active)
Large T antigen
  IC50: > 100 µM (active)
Keap1/Nrf2
  AC50: > 52 µM (inactive)
[14]
  EC50: 21.8 µM (active)
[15]
  IC50: 170 µM (active)
Troponin, cardiac muscle
  EC50: 17.9 µM (inactive)

## C=CC(=O)Nc1ccc(Nc2nc(N[C@H]3CC[C@H](N(C)C)CC3)nc3c2ncn3C(C)C)cc1
Jurkat
  IC50: 0.17 µM (active)
[16]
  IC50: > 80 µM (inactive)
[17]
  AC50: 1.48 µM (active)

## Cc1cc(Cl)cc2sc(N(Cc3cccnc3)C(=O)c3cccc(N4C(=O)CCC4=O)c3)nc12
[18]
  IC50: 58.2 µM (active)
